Measurements as given in patent EP2027850A1, “Pharmaceutical compositions containing voriconazole” (SANDOZ AG, priority 2007, dated 2009).

Test: solubility of voriconazole in N-methylpyrrolidone and water / NMP mixtures
Assay type: physicochemical
Procedure: This can also be used to improve the solubility of voriconazole in aqueous solutions.
0.210 g Voriconazole are dissolved in 50 mL N-Methylpyrrolidone (NMP) using a magnetic stirrer. Further aliquots of 0.305 g, 0.519 g and 1.009 Voriconazole are added to NMP-solution using magnet stirring. Solution I is obtained, composed of […] Voriconazole in 50 mL NMP.
0.45 - 0.55 g Voriconazole are dissolved in NMP according to example 1. After obtaining a clear solution, solutions are made up with water to 20.0 mL.
Therefore, in 20 mL solution, 0.5 g Voriconazole can be dissolved with water / NMP mixtures.

solubility in N-methylpyrrolidone: extremely high
Compound: C[C@@H](c1ncncc1F)[C@](O)(Cn1cncn1)c1ccc(F)cc1F [Voriconazole, (2R,3S)-2-(2,4-Difluorophenyl)-3-(5-fluoro-4-pyrimidinyl)-1-(1H-1,2,4-triazol-1-yl)-butan-2-ol]
